Data: patent US4785005A, “6-(6-alkylpyridone)-carbostyril compounds and their cardiotonic uses” (Rorer Pharmaceutical Corporation, priority 1986, dated 1988)

How the values were obtained:
[1] = test system: anesthetized dog (myocardial contractile force, heart rate, arterial pressure, aortic flow); assay: Ganglionic-beta blocked anesthetized dog procedure; assay type: in vivo; details: for ED50: Canis lupus familiaris, iv, read-out: inotropic ED50
Method: Adult mongrel dogs of either sex weighing 10 to 16 kg are fasted overnight, anesthetized with pentobarbital sodium 35 mg/kg, i.v. intubated, respired with room air using a Harvard respirator, and instrumented surgically to monitor myocardial contractile force, heart rate, arterial pressure, aortic flow and EKG limb lead II. The aforesaid measurements are recorded continously on a strip chart recorder.
Myocardial contractile force is monitored by a a Walton-Brodie strain gauge sutured to the left ventricular myocardium parallel to the left anterior descending coronary artery. Arterial pressure is measured using a fluid-filled catheter attached to a pressure transducer introduced via the right femoral artery and positioned in the thoracic aorta. Mean arterial pressure is determined by electronically clamping the pulsatile pressure signal. Aortic flow is monitored using a precalibrated, noncannulating electromagnetic flow probe positioned around the thoracic aorta. Heart rate is monitored using a cardiotachometer triggered by the QRS complex of the limb lead II EKG. The right femoral vein is cannulated for intravenous infusion of drugs. Body temperature is maintained at 37±1° C.
Following a 30 min postsurgical stabilization period, control values are recorded. Myocardial depression is induced by ganglionic and beta receptor blockade. Initially, the responsiveness of the autonomic nervous system is assessed by performing a 30 sec bilateral carotid occlusion (BCO). Ten minutes later, a saline solution of isoproterenol 0.3 mcg/kg i.v. is administered to assess beta receptor integrity. Ten minutes after that, a saline solution of mecamylamine 2 mg/kg i.v. is infused, followed by a saline solution of propranolol 1 mg/kg i.v. plus 0.3 mg/kg/hr. […] Ten minutes later, the test compound or vehicle is administered intravenously in ascending doses at 30 min intervals at […] in a total volume of 3.5 ml. On completion of the experiment, both BCO and isoproterenol challenges are repeated to verify ganglionic and beta blockade.
Solutions of the most preferred compound of the present invention, 6-[3'-cyano-6'-methyl-2'-oxo(1H)pyridin-5'-yl]-3,4-dihydrocarbostyril, and milrinone, 3-cyano-6-methyl-5-(4-pyridyl)-pyridin-2-one, were administered intravenously in accordance with the procedure described above. The solutions were prepared by dissolution in PEG 200 followed by serial saline dilution to yield test doses. Test solutions of 6-[3'-cyano-6'-methyl-2'-oxo(1H)pyridin-5'-yl]-3,4-dihydrocarbostyril were prepared at doses of 3, 10 and 30 mcg (expressed as base) per kg, and solutions of milrinone were prepared at test doses of 30, 100 and 300 mcg/kg.

[2] = test system: Peak III cAMP phosphodiesterase; assay: Inhibition of Peak III cAMP phosphodiesterase activity; assay type: biochemical, dog; details: fold more potent than milrinone
Source text: The following in vitro method is another means for measuring the inotropic potency of the present compounds. This method is a modification of the enzyme inhibition method reported by Thompson, W. J. and Appleman, M. M., "Characterization of Cyclic Nucleotide Phosphodiesterase of Rat Tissue," J. Biological Chemistry, Vol. 246, pp. 3145-3150 (1971); and Thompson, W. J., Brooker, G. and Appleman, M. M., "Assay of Cyclic Nucleotide Phosphodiesterase with Radioactive Substrates," Methods in Enzymology, Vol. 38, pp. 205-212 (1974); and is believed to correlate to in vivo intropic activity in humans.
The test compounds are included in media comprising a radioactively labeled substrate (^3 H-cyclic nucleotide) such as adenosine 3':5'-monophosphate (cyclic AMP) and guanosine-3':5'-monophosphate(cyclic GMP), and a non-rate-limiting amount of 5'-nucleotidease isolated from a dog heart. The inhibition of the enzyme hydrolysis of the 5'-nucleotide product of the cNUC-PDEase to the corresponding nucleoside is measured by separating the charged, unhydrolyzed substrate from the uncharged hydrolysis product. Separation may be acheived either chromatographically from the uncharged nucleoside product of the assay with ion-exchange resin or preferentially quenched with the ion-exchange resin so that it is not quantitated with the liquid scintillation counter.

[3] = 30 mcg/kg i.v., ganglionic-beta blocked anesthetized dog
[4] = ganglionic-beta blocked anesthetized dog
[5] = 100 mcg/kg i.v., ganglionic-beta blocked anesthetized dog

| Compound | increase in contractile force (maximum) [1, 3] [%] | increase in heart rate [1, 3] [%] | ED50 [1, 4] [mg/kg] | arterial blood pressure ([1]; i.v., at the doses tested (3, 10 and 30 mcg/kg)) | increase in aortic blood flow (maximum) ([1]; i.v., doses of 3, 10 and 30 mcg/kg tested) [%] | potency in Peak III phosphodiesterase inhibition relative to milrinone [2] | increase in contractile force [1, 5] [%] | increase in heart rate [1, 5] [%] | maximum decrease of mean arterial pressure ([1]; i.v., dose-related, sustained, doses of 30, 100 and 300 mcg/kg tested) [%] | increase in aortic blood flow (in words) ([1]; i.v., doses of 30, 100 and 300 mcg/kg tested) |
| --- | --- | --- | --- | --- | --- | --- | --- | --- | --- | --- |
| Cc1[nH]c(=O)c(C#N)cc1-c1ccc2c(c1)CCC(=O)N2 [6-[3'-Cyano-6'-methyl-2'-oxo(1H)pyridin-5'-yl]-3,4-dihydrocarbostyril] | 97 | 17 | 0.016 | not altered | 51 | about twelve |  |  |  |  |
| Cc1[nH]c(=O)c(C#N)cc1-c1ccncc1 [milrinone, 3-cyano-6-methyl-5-(4-pyridyl)-pyridin-2-one, reference compound] |  |  | 0.05 |  |  |  | 111 | 19 | 32 | only transiently at low dose |
